The record followed here is PubChem BioAssay AID504703 (Southern Research Specialized Biocontainment Screening …, 2011).

The term IC50 denotes the concentration that inhibits the measured activity by half. As usually defined, the IC90 is the concentration at which the effect reaches the 90% level. Low values mean an effect from little substance, high ones a need for much substance.

In the experiment the test system is M. tuberculosis H37Rv growth inhibition with meropenem. Description: H37Rv growth inhibition with and without meropenem, dose response, set 2 (AID 504703).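 Further: growth ran 7 days at 37 °C then overnight with Alamar Blue before reading.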
Setting [1] is: M. tuberculosis H37Rv growth inhibition, measured here: IC50 without meropenem.
[2] abbreviates: M. tuberculosis H37Rv growth inhibition, measured here: IC90 without meropenem.
[3] abbreviates: measured here: IC90 with meropenem.

“And” between values parts separate entries of the source, which are not always exact repeats. Equal entries are not always repeated. The source made the active and inactive calls. How the calls were made is not given here. Some results are limits rather than exact numbers.

`Cc1cc2cc(F)ccc2n1-c1ccccc1` gave an IC50 under setting [1] of more than 25 µM. The same compound registered a 90% effect concentration (IC90) under setting [2] of more than 25 µM.
As for `COC(=O)c1c(C)n(-c2ccccc2)c2ccc(O)cc12`, the IC50 is 8.43 µM (inactive) and > 12.5 µM (inactive). This compound also had an IC50 under setting [1] of more than 25 µM. The same compound gave an IC90 under setting [2] of more than 25 µM. This compound also displayed an IC90 under setting [3] of more than 18.8 µM.
Take `Cc1ccc(OCC(=O)Nc2cccc3ncccc23)c(C)c1`: under setting [1], the IC50 is more than 25 µM. Under setting [2], this compound registered an IC90 of more than 25 µM.
`Cc1cc2ccccc2n1-c1ccccc1` displayed an IC50 under setting [1] of more than 25 µM. Moreover, the IC90 under setting [2] was more than 25 µM.
Under setting [1], `O=C(O)CCC(=O)Nc1nc2ccccc2s1` registered an IC50 of more than 25 µM. The IC90 under setting [2] is more than 25 µM.
Turning to `Cc1onc(-c2c(Cl)cccc2Cl)c1/C(N)=N/OC(=O)C1CC1`, under setting [1], the IC50 was 14.7 µM. Also, the concentration for an effect of 90% (IC90) under setting [2] was more than 25 µM and the concentration for an effect of 90% (IC90) under setting [3] is more than 25 µM.
Under setting [1], `Cc1ccc2sc(NC(=O)COc3ccccc3)nc2c1C` gave an IC50 of 23.7 µM. In addition, the IC90 under setting [2] is more than 25 µM.
In the same order, the values of `Cc1cc(C)c(OCC(=O)Nc2nc3ccc(C)cc3s2)c(C)c1` are more than 25 µM and more than 25 µM.
For the compound `Cc1cc2cc(Cl)ccc2[nH]1`, the IC50 under setting [1] was more than 25 µM. Under setting [2], this compound gave an IC90 of more than 25 µM.
Under setting [1], `CC(=O)Nc1ccc2nc(NC(=O)COc3ccccc3)sc2c1` returned an IC50 of more than 25 µM. This compound registered an IC90 under setting [2] of more than 25 µM.
`COc1ccc2c(c1)cc(C)n2-c1ccccc1` came in with an IC50 under setting [1] of more than 25 µM. For the same compound, the IC90 by setting is: under setting [2], more than 25 µM; under setting [3], more than 25 µM.
Under setting [1], `N/C(=N\c1nc2ccccc2o1)NC(=O)c1ccccc1F` came in with an IC50 of more than 25 µM. This compound displayed an IC90 under setting [2] of more than 25 µM.
Take `O=C(COC(=O)C1CC1)c1c[nH]c2ccccc12`: the IC50 under setting [1] was 1.15 µM and 2.08 µM. The IC90 is more than 6.25 µM under setting [2] and more than 25 µM under setting [3].
In the case of `Cc1ccc(OCC(=O)Nc2nc3c(Cl)cccc3s2)cc1`, the IC50 under setting [1] is more than 25 µM. The IC90 under setting [2] was more than 25 µM.
Consider `c1ccc(Nc2ncnc3c2oc2ccccc23)cc1`, for which the IC50 was > 18.8 µM (inactive) and 5.29 µM (inactive). Besides, the IC50 under setting [1] was > 18.8 µM and 11.5 µM. Further, the concentration for an effect of 90% (IC90) under setting [2] was more than 18.8 µM. The IC90 under setting [3] is more than 25 µM.
`Cc1ccc(OCC(=O)Nc2ccc3c4c(cccc24)CC3)c(C)c1` displayed an IC50 under setting [1] of more than 25 µM. Besides, the IC90 is, setting by setting: under setting [2], more than 25 µM; under setting [3], more than 25 µM.
Take `O=C(Nc1nc2ccccc2[nH]1)c1ccc(Cl)c(Cl)c1`: the IC50 is 0.81 µM (inactive). Moreover, the IC50 under setting [1] is 1.9 µM. Further, the IC90 under setting [2] was more than 25 µM. Besides, the concentration for an effect of 90% (IC90) under setting [3] is more than 25 µM.
In the case of `CCOc1ccc2c(c1)c(C(C)=O)c(C)n2-c1ccccc1C`, the IC50 under setting [1] worked out at 23.2 µM. The compound also gave an IC90 under setting [2] of more than 25 µM and an IC90 under setting [3] of 12.1 µM.
Consider `Cc1cc(C)c(OCC(=O)Nc2nc3ccccc3[nH]2)c(C)c1`, for which the IC50 is 5.55 µM (inactive). The IC50 under setting [1] was > 18.8 µM and 7.46 µM. This compound also yielded an IC90 under setting [2] of more than 25 µM. Also, the IC90 under setting [3] is more than 25 µM.
Under setting [1], `CCOc1ccc2nc(NC(=O)COc3ccccc3)sc2c1` registered an IC50 of more than 25 µM. In addition, the IC90 under setting [2] was more than 25 µM.
In turn, `O=C(COc1ccccc1Cl)Nc1nc2ccccc2s1` yielded an IC50 under setting [1] of more than 25 µM. The IC90 under setting [2] was more than 25 µM.
For `COC(=O)c1c(C)[nH]c2ccc(Cl)cc12`, the IC50 under setting [1] is more than 25 µM. The compound also came in with a concentration for an effect of 90% (IC90) under setting [2] of more than 25 µM.
On to `COC(=O)c1ccc2nc(NC(=O)COc3ccccc3)sc2c1`, for which the IC50 under setting [1] is more than 25 µM. This compound had an IC90 under setting [2] of more than 25 µM.
With `Cc1cccc(C)c1OCC(=O)Nc1nc2ccccc2s1`, the half-inhibitory concentration (IC50) under setting [1] was more than 25 µM. Under setting [2], this compound had an IC90 of more than 25 µM.
Take `CC(C)(Oc1ccc(Cl)cc1)C(=O)Nc1nc2ccccc2s1`: the IC50 under setting [1] is more than 25 µM. This compound registered an IC90 under setting [2] of more than 25 µM.
In turn, `O=C(OC(C(=O)Nc1ccc(Cl)cc1C(F)(F)F)c1ccccc1)C1=COCCO1` (centres undefined) came in with an IC50 under setting [1] of 16.9 µM. Also, the IC90 under setting [2] was more than 25 µM and the IC90 under setting [3] is more than 25 µM.
Regarding `N/C(=N\c1nc2cc(Cl)ccc2o1)NC(=O)c1ccccc1`, the half-inhibitory concentration (IC50) under setting [1] is more than 25 µM. Besides, under setting [2], the IC90 is more than 25 µM.
Take `CCOC(=O)COc1nc(-c2ccc(Cl)cc2)cc(-c2ccco2)c1C#N`: under setting [1], the concentration for half-maximal inhibition (IC50) is more than 25 µM. Further, the IC90 runs as follows: under setting [2], more than 25 µM; under setting [3], more than 25 µM.
The compound `CCOc1ccc2nc(NC(=O)COc3ccc(OC)cc3)sc2c1` gave an IC50 under setting [1] of more than 25 µM. In addition, the IC90 under setting [2] is more than 25 µM.
`Cc1cccc(C)c1OCC(=O)Nc1nc2ccc(Cl)cc2s1` returned a 50% inhibitory concentration (IC50) under setting [1] of more than 25 µM. Under setting [2], this compound had a 90% effect concentration (IC90) of more than 25 µM.
`Cc1ccc(OCC(=O)Nc2nc3ccc(F)cc3s2)cc1` yielded an IC50 under setting [1] of more than 25 µM. The IC90 under setting [2] was more than 25 µM.
As to `CC(=O)c1c(C)n(-c2ccc(C)cc2)c2ccc(O)cc12`, under setting [1], the half-inhibitory concentration (IC50) is more than 25 µM. The compound also displayed a 90% effect concentration (IC90) under setting [2] of more than 25 µM.
`COc1ccc2nc(NC(=O)COc3ccc(Cl)cc3)sc2c1` gave a half-maximal inhibitory concentration (IC50) under setting [1] of more than 25 µM. Besides, the IC90 under setting [2] is more than 25 µM.
With `COc1cccc(NC(=O)C2CC2)c1`, under setting [1], the IC50 is more than 25 µM. Further, the IC90 was more than 25 µM under setting [2] and more than 25 µM under setting [3].
